Like-named read-outs stand apart in the source and are kept apart here.

One experiment concerns the target CDK12 (Homo sapiens, UniProt Q9NYV4). Description: CDK12 inhibition assay. It counts as biochemical.
The subject of experiment [1] is HeLa (cervical epithelioid carcinoma). The experiment in a line: MTT antiproliferation assay, HeLa. Type of experiment: cell-based, human. For orientation: Tetrazolium dyes change colour on reduction, which living cells bring about.
The test system of experiment [2] is HepG2 (hepatocellular carcinoma). The experiment in a line: MTT antiproliferation assay, HepG2. Type of experiment: cell-based, human. To be noted: Homo sapiens, HepG2, read-out: IC50 (µM) HePG- 2, MTT assay, HepG2 cells.
Experiment [3] concerns HCT116 (colorectal carcinoma). Description: MTT antiproliferation assay, HCT116. Type of experiment: cell-based. To be noted: Homo sapiens, HCT-116, read-out: IC50 (µM) HCT- 116.
Experiment [4] relates to MCF7 (mammary gland breast cancer). The experiment in a line: MTT antiproliferation assay, MCF7. Type of experiment: cell-based. The following applies: Homo sapiens, MCF7, read-out: IC50 (µM) MCF- 7.
For experiment [5], the system named is WI- 38 (embryonic lung fibroblasts). The experiment in a line: MTT assay, WI-38 fibroblasts. It counts as cell-based. The following applies: Homo sapiens, WI-38, read-out: IC50 (µM) WI- 38.
The target in the next experiment is CDK9 (Homo sapiens, UniProt P50750). Description: biochemical.
CDK9, sequence (P50750 whole entry): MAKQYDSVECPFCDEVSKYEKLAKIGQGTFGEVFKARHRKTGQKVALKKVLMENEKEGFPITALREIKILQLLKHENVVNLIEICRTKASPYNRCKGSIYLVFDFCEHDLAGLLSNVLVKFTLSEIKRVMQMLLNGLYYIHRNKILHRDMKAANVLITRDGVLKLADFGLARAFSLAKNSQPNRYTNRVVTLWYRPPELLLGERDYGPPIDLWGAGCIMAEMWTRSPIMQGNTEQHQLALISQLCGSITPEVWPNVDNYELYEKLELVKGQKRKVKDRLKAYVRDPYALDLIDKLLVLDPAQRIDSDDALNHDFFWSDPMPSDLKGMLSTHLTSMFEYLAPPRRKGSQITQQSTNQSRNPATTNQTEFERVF
CDK9, sequence (O60563 whole entry partner): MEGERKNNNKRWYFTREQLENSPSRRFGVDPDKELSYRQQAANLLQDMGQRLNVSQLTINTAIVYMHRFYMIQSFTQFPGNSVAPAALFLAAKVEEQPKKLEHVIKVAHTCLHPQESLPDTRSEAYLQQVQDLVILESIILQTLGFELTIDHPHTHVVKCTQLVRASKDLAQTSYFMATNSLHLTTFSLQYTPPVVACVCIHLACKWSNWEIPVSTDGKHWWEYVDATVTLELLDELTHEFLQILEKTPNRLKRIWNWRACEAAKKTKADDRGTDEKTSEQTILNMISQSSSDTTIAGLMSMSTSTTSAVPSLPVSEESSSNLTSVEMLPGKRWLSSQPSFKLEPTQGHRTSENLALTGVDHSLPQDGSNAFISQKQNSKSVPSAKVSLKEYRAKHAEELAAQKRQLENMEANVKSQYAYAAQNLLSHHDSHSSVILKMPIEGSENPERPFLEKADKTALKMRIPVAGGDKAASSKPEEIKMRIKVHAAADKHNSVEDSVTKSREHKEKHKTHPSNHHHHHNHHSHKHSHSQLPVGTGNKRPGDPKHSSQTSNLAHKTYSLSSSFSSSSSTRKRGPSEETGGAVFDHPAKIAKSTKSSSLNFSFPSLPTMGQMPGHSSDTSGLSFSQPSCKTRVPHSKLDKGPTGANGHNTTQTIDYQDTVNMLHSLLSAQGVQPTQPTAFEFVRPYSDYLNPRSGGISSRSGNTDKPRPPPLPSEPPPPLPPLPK
Setting [6] is: Homo sapiens, HeLa, read-out: IC50 (µM) Hela, MTT assay, HeLa cells.
Setting [7] is: read-out: IC50 (µM) Hela, MTT assay, HeLa cells.

CDK12, sequence (Q9NYV4 whole entry): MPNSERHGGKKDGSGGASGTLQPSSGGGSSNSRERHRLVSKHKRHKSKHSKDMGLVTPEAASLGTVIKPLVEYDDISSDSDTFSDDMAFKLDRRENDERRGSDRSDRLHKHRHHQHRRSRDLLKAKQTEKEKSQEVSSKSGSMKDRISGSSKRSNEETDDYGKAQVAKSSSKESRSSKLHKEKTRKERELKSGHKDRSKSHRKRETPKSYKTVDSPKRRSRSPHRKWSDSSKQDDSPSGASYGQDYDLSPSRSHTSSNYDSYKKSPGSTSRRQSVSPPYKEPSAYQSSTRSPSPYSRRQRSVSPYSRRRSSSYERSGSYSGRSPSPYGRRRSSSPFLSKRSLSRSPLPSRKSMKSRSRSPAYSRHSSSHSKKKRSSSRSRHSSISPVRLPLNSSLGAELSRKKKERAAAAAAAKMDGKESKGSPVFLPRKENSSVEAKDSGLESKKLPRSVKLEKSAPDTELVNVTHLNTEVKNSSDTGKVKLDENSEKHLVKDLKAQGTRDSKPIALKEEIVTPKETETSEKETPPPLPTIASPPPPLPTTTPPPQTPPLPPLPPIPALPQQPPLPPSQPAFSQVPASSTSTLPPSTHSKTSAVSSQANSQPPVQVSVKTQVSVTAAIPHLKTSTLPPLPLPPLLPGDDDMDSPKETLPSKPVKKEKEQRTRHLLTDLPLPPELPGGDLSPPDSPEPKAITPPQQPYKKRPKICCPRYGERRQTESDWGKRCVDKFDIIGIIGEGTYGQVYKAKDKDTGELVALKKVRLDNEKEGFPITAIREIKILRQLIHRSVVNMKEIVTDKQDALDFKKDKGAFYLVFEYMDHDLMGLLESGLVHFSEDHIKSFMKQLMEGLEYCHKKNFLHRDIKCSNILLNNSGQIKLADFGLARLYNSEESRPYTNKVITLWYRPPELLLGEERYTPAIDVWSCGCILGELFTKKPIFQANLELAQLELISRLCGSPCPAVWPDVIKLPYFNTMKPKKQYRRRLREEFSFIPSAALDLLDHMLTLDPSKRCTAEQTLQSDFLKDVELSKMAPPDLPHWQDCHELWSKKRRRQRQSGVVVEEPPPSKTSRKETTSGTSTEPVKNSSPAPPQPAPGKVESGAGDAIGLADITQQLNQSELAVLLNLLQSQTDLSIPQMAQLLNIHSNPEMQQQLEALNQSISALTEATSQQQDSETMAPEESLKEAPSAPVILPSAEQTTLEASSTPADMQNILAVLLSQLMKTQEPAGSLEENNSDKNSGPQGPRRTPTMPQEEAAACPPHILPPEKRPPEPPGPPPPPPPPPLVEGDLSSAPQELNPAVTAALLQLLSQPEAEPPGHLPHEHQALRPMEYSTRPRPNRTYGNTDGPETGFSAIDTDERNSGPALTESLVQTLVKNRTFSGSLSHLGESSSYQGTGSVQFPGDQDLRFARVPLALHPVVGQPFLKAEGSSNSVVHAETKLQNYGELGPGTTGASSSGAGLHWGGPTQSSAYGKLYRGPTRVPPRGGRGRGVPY
CDK12, sequence (O75909 whole entry partner): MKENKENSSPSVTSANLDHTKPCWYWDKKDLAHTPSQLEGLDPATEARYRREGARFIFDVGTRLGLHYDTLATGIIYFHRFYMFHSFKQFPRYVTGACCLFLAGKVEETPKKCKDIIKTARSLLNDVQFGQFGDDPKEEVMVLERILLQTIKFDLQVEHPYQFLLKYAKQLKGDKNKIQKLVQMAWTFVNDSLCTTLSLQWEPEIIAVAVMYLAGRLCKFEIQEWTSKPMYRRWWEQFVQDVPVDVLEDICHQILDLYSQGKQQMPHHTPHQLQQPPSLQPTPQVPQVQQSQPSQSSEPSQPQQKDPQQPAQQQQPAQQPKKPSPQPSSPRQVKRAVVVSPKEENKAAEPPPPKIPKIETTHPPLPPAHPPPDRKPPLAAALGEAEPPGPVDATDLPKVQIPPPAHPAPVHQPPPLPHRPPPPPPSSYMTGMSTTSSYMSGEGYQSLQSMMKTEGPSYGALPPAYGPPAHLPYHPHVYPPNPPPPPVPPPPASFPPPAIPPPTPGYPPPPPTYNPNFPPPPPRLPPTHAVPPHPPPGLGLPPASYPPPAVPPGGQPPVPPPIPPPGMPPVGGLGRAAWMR

Regarding `NS(=O)(=O)c1cccc(Nc2ncc(F)c(-n3c(C4CC4)nc4ccccc43)n2)c1` [Compound 4r, 3-((4-(2-cyclopropyl-1H-benzo[d]imidazol-1-yl)− 5-fluoropyrimidin-2-yl)amino)benzenesulfonamide], the IC50 (commonly the midpoint of a concentration-inhibition curve) is 0.104 ± 0.001 µM at CDK12; 26.5 ± 1.8 µM in experiment [1] (setting [6]); 11.4 ± 0.9 µM in experiment [2]; 29.8 ± 1.9 µM in experiment [3]; 16.2 ± 1.4 µM in experiment [4]; above 50 µM in experiment [5]. This compound registered a concentration for half-maximal inhibition (IC50) at CDK9 of 0.242 ± 0.01 µM.

For `Cc1nc2ccccc2n1-c1nc(Nc2cccc(S(N)(=O)=O)c2)ncc1C(F)(F)F` [Compound 4 h, 3-((4-(2-methyl-1H-benzo[d]imidazol-1-yl)− 5-(trifluoromethyl)pyrimidin-2-yl)amino)benzenesulfonamide], the IC50 at CDK12 is 0.153 ± 0.006 µM; in experiment [1] (setting [6]) it was above 50 µM; in experiment [2], above 50 µM; in experiment [3], above 50 µM; in experiment [4], above 50 µM; in experiment [5] it was above 50 µM. For the same compound, on CDK9, 0.05 ± 0.002 µM corresponded to half-maximal inhibition (IC50).

`NS(=O)(=O)c1cccc(Nc2ncc(F)c(-n3c(C(F)(F)F)nc4ccccc43)n2)c1` [Compound 4j, 3-((5-fluoro-4-(2-(trifluoromethyl)− 1H-benzo[d]imidazol-1-yl)pyrimidin-2-yl)amino)benzenesulfonamide]: the IC50 on CDK12 was found to be 0.104 ± 0.004 µM; in experiment [1] (setting [6]) it was 19.4 µM; in experiment [1] (setting [7]), 19.2 ± 1.5 µM; in experiment [2], 8.54 ± 0.7 µM; in experiment [3], 16.8 ± 1.2 µM; in experiment [4], 11.7 ± 0.9 µM. Also, the IC50 was above 50 µM in experiment [5] and 0.055 ± 0.002 µM against CDK9.

For the compound `Cc1cnc(Nc2cccc(S(N)(=O)=O)c2)nc1-n1c(C)nc2ccccc21` [Compound 4 g, 3-((5-methyl-4-(2-methyl-1H-benzo[d]imidazol-1-yl)pyrimidin-2-yl)amino)benzenesulfonamide], the IC50 on CDK12 is 0.071 ± 0.003 µM; in experiment [1] (setting [6]), 12.6 µM; in experiment [1] (setting [7]), 12.7 ± 0.9 µM; in experiment [2] it was 7.59 ± 0.6 µM; in experiment [3], 9.34 ± 0.8 µM; in experiment [4], 5.08 ± 0.3 µM. The figures for the IC50 (in experiment [5]; against CDK9) were above 50 µM and 0.114 ± 0.005 µM, respectively.

Take `Cc1cnc(Nc2cccc(S(N)(=O)=O)c2)nc1-n1c(C(C)C)nc2ccccc21` [Compound 4o, 3-((4-(2-isopropyl-1H-benzo[d]imidazol-1-yl)− 5-methylpyrimidin-2-yl)amino)benzenesulfonamide]: the IC50 is 1.88 ± 0.073 µM against CDK12; above 50 µM in experiment [1] (setting [6]); above 50 µM in experiment [2]; above 50 µM in experiment [3]; above 50 µM in experiment [4]; above 50 µM in experiment [5]. Also, at CDK9, inhibition was half-maximal at 1.05 ± 0.045 µM (IC50).

Regarding `NS(=O)(=O)c1cccc(Nc2nccc(-n3c(C4CC4)nc4ccccc43)n2)c1` [Compound 4q, 3-((4-(2-cyclopropyl-1H-benzo[d]imidazol-1-yl)pyrimidin-2-yl)amino)benzenesulfonamide], the IC50 against CDK12 is 0.074 ± 0.003 µM; in experiment [1] (setting [6]) it was 9.71 ± 0.7 µM; in experiment [2], 5.88 ± 0.4 µM; in experiment [3], 13.7 ± 1 µM; in experiment [4] it was 8.19 ± 0.5 µM; in experiment [5] it was 31.4 ± 2.1 µM. Further, on CDK9, the IC50 stood at 0.057 ± 0.002 µM.

(Values after paper PMC12102023 (Saudi Pharmaceutical Journal : SPJ, 2025).)
